Values after ≈ are worked out from the molar mass of the structure shown.
What was measured:
[1] = test system: Hep-2 (human laryngeal carcinoma); test: Cytotoxicity against human Hep-2 cells after 72 hrs by SRB assay; conditions: Hep-2, 72 h, read-out: ED50 (the source's name)
KB = test: Cytotoxicity against human KB cells after 72 hrs by SRB assay
PC-3 = test: Cytotoxicity against human PC3 cells after 72 hrs by SRB assay; conditions: PC-3, 72 h, read-out: ED50 (the source's name)
HCT-15 = test: Cytotoxicity against human HCT15 cells after 72 hrs by SRB assay; conditions: HCT-15, 72 h, read-out: ED50 (the source's name)
MCF7 = test: Cytotoxicity against human MCF7 cells after 72 hrs by SRB assay; conditions: MCF7, 72 h, read-out: ED50 (the source's name)
HeLa = test: Cytotoxicity against human HeLa cells after 72 hrs by SRB assay; conditions: read-out: ED50 (the source's name)

## C[C@H](OC(=O)/C=C/c1ccc(O)cc1)C(=O)[C@H]1C[C@@H]1[C@H](O)[C@H]1CC=CC(=O)O1 [BREVIPOLIDE G]
[1]
  EC50: 0.3 mg/L (≈ 0.776 µM)
KB
  IC50: 0.3 mg/L (≈ 0.776 µM)
PC-3
  EC50: 0.3 mg/L (≈ 0.776 µM)
HCT-15
  EC50: 0.3 mg/L (≈ 0.776 µM)
MCF7
  EC50: 0.3 mg/L (≈ 0.776 µM)
HeLa
  EC50: 0.3 mg/L (≈ 0.776 µM)

## COc1ccc(/C=C/C(=O)O[C@@H](C)C(=O)[C@H]2C[C@@H]2[C@H](O)[C@H]2CC=CC(=O)O2)cc1O [BREVIPOLIDE J]
[1]
  EC50: 0.3 mg/L (≈ 0.72 µM)
KB
  IC50: 1.2 mg/L (≈ 2.88 µM)
PC-3
  EC50: 0.3 mg/L (≈ 0.72 µM)
HCT-15
  EC50: 0.3 mg/L (≈ 0.72 µM)
MCF7
  EC50: 0.3 mg/L (≈ 0.72 µM)
HeLa
  EC50: 0.3 mg/L (≈ 0.72 µM)

## COc1ccc(/C=C\C(=O)O[C@@H](C)C(=O)[C@H]2C[C@@H]2[C@H](O)[C@H]2CC=CC(=O)O2)cc1 [BREVIPOLIDE I]
[1]
  EC50: 0.3 mg/L (≈ 0.749 µM)
KB
  IC50: 1.9 mg/L (≈ 4.74 µM)
PC-3
  EC50: 0.3 mg/L (≈ 0.749 µM)
HCT-15
  EC50: 0.3 mg/L (≈ 0.749 µM)
MCF7
  EC50: 0.3 mg/L (≈ 0.749 µM)
HeLa
  EC50: 0.3 mg/L (≈ 0.749 µM)

## COc1ccc(/C=C/C(=O)O[C@@H](C)C(=O)[C@H]2C[C@@H]2[C@H](O)[C@H]2CC=CC(=O)O2)cc1 [BREVIPOLIDE H]
[1]
  EC50: 0.3 mg/L (≈ 0.749 µM)
KB
  IC50: 2 mg/L (≈ 4.99 µM)
PC-3
  EC50: 0.3 mg/L (≈ 0.749 µM)
HCT-15
  EC50: 0.3 mg/L (≈ 0.749 µM)
MCF7
  EC50: 0.3 mg/L (≈ 0.749 µM)
HeLa
  EC50: 0.3 mg/L (≈ 0.749 µM)

Source: ChEMBL document CHEMBL2331430, “Absolute configuration and conformational analysis of brevipolides, bioactive 5,6-dihydro-α-pyrones from Hyptis brevipes” (J Nat Prod, 2013)
